One data set concerns thrombin. As to the kind of experiment: Thrombin generation in plasma. Format: biochemical, human. The following applies: PPP from patients taking baby aspirin daily; normal range about 66-166 nM; FIG. 18. The protocol: Reagent Preparation. For thrombin generation, the following materials were used from manufacturers, as follows: FluCa Kit (Diagnostica Stago, Cat. No. 86197), Thrombin calibrator (Diagnostica Stago, Cat. No. 86197), PRP Reagent (Diagnostica Stago, Cat. No. 86196), OCTOPLAS®, a solvent detergent treated human pooled plasma (Octapharma, Cat. No. 8-68209-952-04). All frozen reagents were thawed in a 37° C. water bath before use. All reagents were rehydrated with sterile water using the volume printed on the reagent labels. Approximately 2 min after rehydration, the reagents were mixed by inverting vials 5 times, so no chunks or powder left; vortexing was not used. […]
Sample Analysis - Plate preparation and testing. For experiments containing thrombosomes, a thrombosomes dilution series was generated (dilutions of 194.4 K, 64.8 K, 21.6 K, and 7.2 K per µL were typically used; cell counts are determined by flow cytometry) for each the experimental thrombosomes and the reference thrombosomes. […] The plate was then incubated in the Fluoroskan Ascent 96 well fluorescent plate reader (Thrombinoscope) (ThermoFisher Scientific) for 10 minutes. […] The plate fluorescence was monitored for 75 minutes at an interval of 20 seconds and a temperature of 40-41° C.
The effect of aspirin treatment (concentration) on thrombin generation was measured. […]

In a further data set the test system is NOD/SCID mice. Put plainly: Tail-snip bleed model in clopidogrel-treated mice. In kind it is in vivo, mouse. The following applies: ~3 times the clinical dose of clopidogrel for 5 days; untreated 9 minutes. The procedure:
The mouse was treated with clopidogrel for 5 days. The mouse was anesthetized, the tail end was snipped off followed by thrombosomes being immediately administered. The time from tail snip to tail stop bleeding was recorded by visual inspection.
NOD/SCID mice were treated with ~ 3 times the clinical dose of clopidogrel for 5 days then assessed in the tail-snip bleed model. The bleed time (min) was extended to 17.8 minutes with clopidogrel treatment verses untreated at 9 minutes (data not shown).

The subject of a further data set is platelet rich plasma. As to the kind of experiment: T-TAS flow system occlusion of platelet rich plasma (collagen and tissue factor coated channel). Format: cell-based. To be noted: untreated 18.43. From the text:
(§1) Evaluation by T-TAS® using an AR chip. AR chips are characterized by a single channel containing collagen and tissue factor; they can be used to analyze clotting and platelet function.

In a further data set the test system is whole blood. Put plainly: T-TAS AR chip occlusion of whole blood under shear. In kind it is cell-based.
Source text: as §1

For data set [1] the following is noted: cited from earlier work.
A further data set has as its system platelets. Put plainly: Transmission light aggregometry, collagen-induced platelet aggregation in PRP. Format: cell-based. To be noted: collagen 10 µg/mL, all concentrations tested, FIG. 1. From the text: Plasma samples with platelet or thrombosomes or combination of both are loaded into cuvettes and placed into the aggregometry chambers. The chambers warm the sample and provide constant stirring. The initiation of aggregation can be done by multiple types of […] agents not limited to thrombin, ADP, collagen and any agent known to stimulate platelet aggregation. The samples can also have been taken as ex-vivo, or in-vitro supplemented with inhibitors. The instrument begins the assay by first recording the light transmission previous to stimulation for 2 minutes. The stimulant of interest is then introduced by the technician and the change in light transmission is recorded over time. The increase in light transmission corresponds to increase in platelet aggregation.
The aggregation of platelets (in platelet rich plasma) was evaluated using transmission light aggregometry. […] (FIG. 1).

Molecules are shown by their SMILES. Positions of bridges follow the written chain, without caps; N, C: chain ends. Non-standard residues stand in square brackets, D forms with d. Residues, ends and D or L forms follow the SMILES beside them. hArg = N=C(N)NCCCC[C@H](N)C(=O)O; Mpa = O=C(O)CCS

With `CC(=O)Oc1ccccc1C(=O)O` [aspirin], the “peak thrombin of aspirin plasma in absence of thrombosomes” value with thrombin is “about 45 nM”.

In turn, `COC(=O)[C@H](c1ccccc1Cl)N1CCc2sccc2C1` [clopidogrel] came in with a bleed time in the data set on NOD/SCID mice of 17.8 min.

Regarding `N=C(N)NCCCC[C@@H]1NC(=O)CCSSC[C@@H](C(N)=O)NC(=O)[C@@H]2CCCN2C(=O)[C@H](Cc2c[nH]c3ccccc23)NC(=O)[C@H](CC(=O)O)NC(=O)CNC1=O` [eptifibatide] ([Mpa][hArg]GDWPC-NH2; disulfide 1-7), the “occlusion time of platelet rich plasma” value in the data set with platelet rich plasma (9 µM eptifibatide, FIGS. 10A, 10B) is listed as “over 30 minutes”. In addition, in the data set on whole blood (6 µM eptifibatide, untreated whole blood occluded at 8 minutes, FIG. 2), the “occlusion time of whole blood on T-TAS AR Chip” value was 16 min. The “effect on occlusion time of whole blood on T-TAS AR Chip” value with whole blood (eptifibatide at various concentrations) is on record as “dose-dependent manner”. Further, the blood concentration in data set [1] (IV 180 µg/kg bolus followed by 2 µg/kg/min continuous infusion, typical) is 1000 to 2000 nM. Moreover, the “time for bleeding time to return to normal after drug stoppage” value in data set [1] (generally) is at most 1 h. For the same molecule, the collagen-induced platelet aggregation entry in the data set with platelets is “completely inhibited”.

As for `CCCCS(=O)(=O)N[C@@H](Cc1ccc(OCCCCC2CCNCC2)cc1)C(=O)O` [tirofiban], in the data set on platelet rich plasma (100 ng/mL tirofiban, FIGS. 9A, 9B), the “occlusion time of platelet rich plasma” value is listed as “no occlusion”.

The values above are taken from patent US20230248772A1, “PRODUCTS AND METHODS USING A PLATELET-DERIVED HEMOSTATIC AGENT FOR CONTROLLING BLEEDING AND IMPROVING HEALING” (Cellphire, Inc., priority 2015, published 2023).
